Experimental data as given in US20250320213A1, “Nitrogen-Containing Heterocyclic Compounds” (Pfizer Inc., priority 2024, published 2025).
Read-outs that look alike come from different tables or passages of the source.

How the values were obtained:
[1] = tested on: CCL17 secretion in peripheral human whole blood; assay: Human Whole Blood (HWB) CCL17 TR-FRET Assay (IL-13 stimulated CCL17 secretion); type: cell-based
In short: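 IC50 comes from serum CCL17 measured by a TR-FRET sandwich assay (16 h at room temperature, 665/615 nm ratio). Beforehand, blood in sodium heparin was exposed to an 11-point, 3-fold compound series for 2 h at 37°C and then to 10 ng/mL IL-13 for 48 h.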

[2] = target: T1, STAT6 (Homo sapiens, UniProt P42226); assay: STAT6 Reporter Luciferase Assay (IL-13 stimulated HaCaT keratinocyte NanoLuc reporter cells); type: cell-based; conditions: read-out: Reporter EC50
T1 construct: stably transfected HaCaT keratinocyte cell line, which expresses NanoLuc luciferase reporter gene under the transcriptional control of the STAT6 responsive promoter; endogenous in cells; host or cells: HaCaT keratinocyte reporter cell line (stably transfected with a NanoLuc reporter)
T1 sequence (P42226 1-847): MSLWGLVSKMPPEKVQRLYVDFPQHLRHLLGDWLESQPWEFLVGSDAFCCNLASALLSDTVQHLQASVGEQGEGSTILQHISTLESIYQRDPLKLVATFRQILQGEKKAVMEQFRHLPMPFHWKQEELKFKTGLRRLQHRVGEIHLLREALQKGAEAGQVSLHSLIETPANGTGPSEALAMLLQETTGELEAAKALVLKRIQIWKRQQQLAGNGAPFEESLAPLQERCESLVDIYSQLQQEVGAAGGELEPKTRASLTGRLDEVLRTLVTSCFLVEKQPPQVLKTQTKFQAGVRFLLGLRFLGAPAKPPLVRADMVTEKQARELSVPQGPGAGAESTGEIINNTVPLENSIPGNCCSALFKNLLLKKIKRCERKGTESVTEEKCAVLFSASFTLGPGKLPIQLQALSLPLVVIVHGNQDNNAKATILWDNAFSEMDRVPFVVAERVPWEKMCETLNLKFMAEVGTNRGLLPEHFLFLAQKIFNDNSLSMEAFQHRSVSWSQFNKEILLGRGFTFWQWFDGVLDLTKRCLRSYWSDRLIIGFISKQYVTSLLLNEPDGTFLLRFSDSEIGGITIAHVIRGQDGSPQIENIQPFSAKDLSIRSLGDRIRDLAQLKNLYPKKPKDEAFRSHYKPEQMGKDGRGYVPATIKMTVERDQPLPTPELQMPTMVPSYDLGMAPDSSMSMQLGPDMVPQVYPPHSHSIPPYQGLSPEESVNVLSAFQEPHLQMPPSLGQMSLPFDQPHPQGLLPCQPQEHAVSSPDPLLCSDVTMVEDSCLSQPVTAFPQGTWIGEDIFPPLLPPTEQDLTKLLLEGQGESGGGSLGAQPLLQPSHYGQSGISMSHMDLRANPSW
In short: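 Cells were plated overnight, washed, exposed to compound for two hours, stimulated with IL-13 (0.12 nM final) for four hours at 37 °C, and then lysed with Nano-Glo substrate for 15 min before luminescence reading.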

[3] = Homo sapiens, 48 h, human whole blood, IL-13 stimulated
[4] = IL-13 stimulated HaCaT STAT6 NanoLuc reporter cells
[5] = Homo sapiens, 48 h, human whole blood, 10 ng/mL IL13, 48 hours
[6] = human whole blood, IL-13 stimulated, 48 hours
[7] = Homo sapiens, 48 h, inhibition of CCL17 secretion in human whole blood, 10 ng/mL IL13, 48 hours
[8] = STAT6 NanoLuc luciferase reporter, IL-13 stimulated HaCaT keratinocyte cells

| SMILES | IC50 [1, 3] | EC50 [2, 4] | also measured |
| --- | --- | --- | --- |
| CCOC(=O)Nc1ccc(CNC(=O)c2nn(C(C)C)c3c2CN(c2ccc(C(=O)N(C)C)cn2)C[C@@H]3C)cc1 [Example 497, ethyl (S)-(4-((5-(5-(dimethylcarbamoyl)pyridin-2-yl)-1-isopropyl-7-methyl-4,5,6,7-tetrahydro-1H-pyrazolo[4,3-c]pyridine-3-carboxamido)methyl)phenyl)carbamate] | 16 nM | 1 nM | – |
| CN[C@H]1CCN(C(=O)Nc2ccc(CNC(=O)c3nn(C(C)C)c4c3CN(c3ccc(C(=O)N(C)C)cc3)C[C@@H]4C)cc2)C1 [Example 571, (S)-5-(4-(dimethylcarbamoyl)phenyl)-1-isopropyl-7-methyl-N-(4-((S)-3-(methylamino)pyrrolidine-1-carboxamido)benzyl)-4,5,6,7-tetrahydro-1H-pyrazolo[4,3-c]pyridine-3-carboxamide] | – | 4 nM | IC50 [1, 5]: 20 nM |
| CC(C)n1nc(C(=O)NCc2ccc(NC(=O)N(C)C)cc2)c2c1CCN(c1ccc(C3CCN(C)C3=O)cn1)C2 (racemic) [Example 505, rac-(R)-N-(4-(3,3-dimethylureido)benzyl)-1-isopropyl-5-(5-(1-methyl-2-oxopyrrolidin-3-yl)pyridin-2-yl)-4,5,6,7-tetrahydro-1H-pyrazolo[4,3-c]pyridine-3-carboxamide] | > 30000 nM | 7900 nM | – |
| CCC1CN(c2ccc(C(=O)N(C)C)cn2)Cc2c(C(=O)NCc3ccc(NC(=O)N(C)C)cc3)nn(CC)c21 (single isomer, unassigned) [Example 312, rel-(R or S)-5-(5-(dimethylcarbamoyl)pyridin-2-yl)-N-(4-(3,3-dimethylureido)benzyl)-1,7-diethyl-4,5,6,7-tetrahydro-1H-pyrazolo[4,3-c]pyridine-3-carboxamide] | – | 10 nM | IC50 [1, 6]: 163 nM |
| CC(C)n1nc(C(=O)NCc2ccc(NC(=O)N(C)C)cc2)c2c1C(O)CN(c1ccc(C(=O)N(C)C)cn1)C2 (single isomer, unassigned) [Example 475, rel-(R or S)-5-(5-(dimethylcarbamoyl)pyridin-2-yl)-N-(4-(3,3-dimethylureido)benzyl)-7-hydroxy-1-isopropyl-4,5,6,7-tetrahydro-1H-pyrazolo[4,3-c]pyridine-3-carboxamide] | – | 72 nM | IC50 [1, 6]: 215 nM |
| CC(C)n1nc(C(=O)NCc2ccc(NC(=O)N(C)C)cc2)c2c1CCN(c1ccc(N3CC4(CC4)CC3=O)cn1)C2 [Example 97, N-(4-(3,3-dimethylureido)benzyl)-1-isopropyl-5-(5-(6-oxo-5-azaspiro[2.4]heptan-5-yl)pyridin-2-yl)-4,5,6,7-tetrahydro-1H-pyrazolo[4,3-c]pyridine-3-carboxamide] | – | – | IC50 [1, 7]: 3480 nM; EC50 [2, 8]: 65 nM |
| CC(CC#N)n1nc(C(=O)NCc2ccc(NC(=O)N(C)C)cc2)c2c1CCN(c1ccc(C(=O)N(C)C)cn1)C2 (racemic) [Example 358, rac-(R)-1-(1-cyanopropan-2-yl)-5-(5-(dimethylcarbamoyl)pyridin-2-yl)-N-(4-(3,3-dimethylureido)benzyl)-4,5,6,7-tetrahydro-1H-pyrazolo[4,3-c]pyridine-3-carboxamide] | 112 nM | 51 nM | – |
| CC(C)n1nc(C(=O)NCc2ccc(-c3nccc(=O)[nH]3)cc2)c2c1CCN(c1ccc(C(=O)N(C)C)cn1)C2 [Example 43, 5-(5-(Dimethylcarbamoyl)pyridin-2-yl)-1-isopropyl-N-(4-(6-oxo-1,6-dihydropyrimidin-2-yl)benzyl)-4,5,6,7-tetrahydro-1H-pyrazolo[4,3-c]pyridine-3-carboxamide] | – | – | IC50 [1, 7]: 1300 nM; EC50 [2, 8]: 286 nM |
| CC(C1CC1)n1nc(C(=O)NCc2ccc(NC(=O)N(C)C)cc2)c2c1CCN(c1ccc(C(=O)N(C)C)cn1)C2 (single isomer, unassigned) [Example 237, rel-(R or S)-1-(1-cyclopropylethyl)-5-(5-(dimethylcarbamoyl)pyridin-2-yl)-N-(4-(3,3-dimethylureido)benzyl)-4,5,6,7-tetrahydro-1H-pyrazolo[4,3-c]pyridine-3-carboxamide] | 83 nM | 7 nM | – |
| Cc1nc(C(=O)NCc2ccc(NC(=O)N(C)C)cc2)c2n1C(C)CN(c1ccc(C(=O)N(C)C)cn1)C2 (single isomer, unassigned) [Example 54, rel-(R or S)-7-(5-(dimethylcarbamoyl)pyridin-2-yl)-N-(4-(3,3-dimethylureido)benzyl)-3,5-dimethyl-5,6,7,8-tetrahydroimidazo[1,5-a]pyrazine-1-carboxamide] | – | – | IC50 ([1]; inhibition of CCL17 secretion in human whole blood, 10 ng/mL IL13, 48 hours): 332 nM; EC50 [2, 8]: 120 nM |
| CC(C)n1nc(C(=O)NCc2ccc(C(=O)NCC3CCN(C)CC3)cc2)c2c1[C@@H](C)CN(c1ccc(C(=O)N(C)C)cc1)C2 [Example 617, (S)-5-(4-(dimethylcarbamoyl)phenyl)-1-isopropyl-7-methyl-N-(4-(((1-methylpiperidin-4-yl)methyl)carbamoyl)benzyl)-4,5,6,7-tetrahydro-1H-pyrazolo[4,3-c]pyridine-3-carboxamide] | – | 178 nM | IC50 [1, 5]: 502 nM |
| CC(CC#N)n1nc(C(=O)NCc2ccc(NC(=O)N(C)C)cc2)c2c1CCN(c1ccc(C(=O)N(C)C)cn1)C2 (single isomer, unassigned) [Example 347, rel-(R or S)-1-(1-cyanopropan-2-yl)-5-(5-(dimethylcarbamoyl)pyridin-2-yl)-N-(4-(3,3-dimethylureido)benzyl)-4,5,6,7-tetrahydro-1H-pyrazolo[4,3-c]pyridine-3-carboxamide] | – | 83 nM | IC50 [1, 6]: 127 nM |
| CC(C)n1nc(C(=O)NCc2ccc(NC(=O)N(C)C)cc2)c2c1[C@@H](C)CN(c1ccc(C(=O)N(C)CC3CCN(C)CC3)cc1)C2 [Example 635, (S)-N-(4-(3,3-dimethylureido)benzyl)-1-isopropyl-7-methyl-5-(4-(methyl((1-methylpiperidin-4-yl)methyl)carbamoyl)phenyl)-4,5,6,7-tetrahydro-1H-pyrazolo[4,3-c]pyridine-3-carboxamide] | – | 14 nM | IC50 [1, 5]: 71 nM |
| CC(C)n1nc(C(=O)NCc2ccc(NC(=O)N(C)C)cc2)c2c1[C@@H](C)[C@H](C)N(c1ccc(C(=O)N(C)C)cn1)C2 (single isomer, unassigned) [Example 355] | 3 nM | 0.2 nM | – |
| CCn1nc(C(=O)NCc2ccc(NC(=O)N(C)C)cc2)c2c1CCN(c1ncc(C(=O)N(C)C)cn1)[C@H]2C (single isomer, unassigned) [Example 510] | 8830 nM | 1520 nM | – |
| CC(C)n1nc(C(=O)NCc2ccc(-c3ncc[nH]3)cc2)c2c1[C@@H](C)CN(c1ccc(C(=O)N(C)C)cn1)C2 [Example 343, (S)-N-(4-(1H-imidazol-2-yl)benzyl)-5-(5-(dimethylcarbamoyl)pyridin-2-yl)-1-isopropyl-7-methyl-4,5,6,7-tetrahydro-1H-pyrazolo[4,3-c]pyridine-3-carboxamide] | 9 nM | 1 nM | – |
| CNC1(C)CCN(C(=O)Nc2ccc(CNC(=O)c3nn(C(C)C)c4c3CN(c3ccc(C(=O)N(C)C)cc3)C[C@@H]4C)cc2)C1 (single isomer, unassigned) [Example 714, (S)-5-(4-(dimethylcarbamoyl)phenyl)-1-isopropyl-7-methyl-N-(4-((R*)-3-methyl-3-(methylamino)pyrrolidine-1-carboxamido)benzyl)-4,5,6,7-tetrahydro-1H-pyrazolo[4,3-c]pyridine-3-carboxamide] | – | 4 nM | IC50 ([1]; human whole blood, IL-13 10 ng/mL, 48 hours): 28 nM |
| CC(C)n1nc(C(=O)NCc2ccc(NC(=O)N3CC(C#N)C3)cc2)c2c1CCN(c1ccc(C(=O)N(C)C)cn1)C2 [Example 158, N-(4-(3-cyanoazetidine-1-carboxamido)benzyl)-5-(5-(dimethylcarbamoyl)pyridin-2-yl)-1-isopropyl-4,5,6,7-tetrahydro-1H-pyrazolo[4,3-c]pyridine-3-carboxamide] | – | – | IC50 [1, 7]: 130 nM; EC50 [2, 8]: 15 nM |
